Measurements from paper PMC3733713, “Downscaling the Analysis of Complex Transmembrane Signaling Cascades to Closed Attoliter Volumes” (PLoS ONE, 2013).

Biological target: T1, adenosine A2A receptor (A2AR-YFP) (Homo sapiens, UniProt P29274)
T1 construct: gene ADORA2A; Human adenosine 2A receptor fused C-terminally to EYFP
Test: fluorescence correlation spectroscopy titration on single native vesicles from HEK293T cells (KD =[…] on cells)
Assay type: binding

T1 sequence (P29274 whole entry, the tested form may be a part): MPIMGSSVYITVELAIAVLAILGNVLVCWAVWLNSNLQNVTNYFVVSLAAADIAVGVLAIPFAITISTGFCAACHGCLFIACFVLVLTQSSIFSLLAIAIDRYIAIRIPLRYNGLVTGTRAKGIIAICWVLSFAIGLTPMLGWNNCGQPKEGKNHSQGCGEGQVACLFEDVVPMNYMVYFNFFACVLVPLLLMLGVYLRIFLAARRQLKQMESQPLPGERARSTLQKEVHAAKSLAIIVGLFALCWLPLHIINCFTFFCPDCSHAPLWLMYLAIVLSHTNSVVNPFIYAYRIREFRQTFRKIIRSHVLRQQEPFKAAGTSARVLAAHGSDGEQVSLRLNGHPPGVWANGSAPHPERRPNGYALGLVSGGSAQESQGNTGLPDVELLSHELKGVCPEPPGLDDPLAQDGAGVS

Kd: 67 ± 11 nM
Substance: XAC-Atto655
